Here are results for 11 compounds from patent US10059701B2 (Merck Patent GmbH, priority 2015, dated 2018).

The target of one experiment is T1, IRAK1 (Homo sapiens, UniProt P51617).
T1 construct: His-TEV-IRAK1 (194-712); His (N); TEV cleavage site (N)
In words: IRAK1 enzymatic assay (ADP-Glo luminescence). The class given is biochemical. As to conditions: purified human recombinant His-TEV-IRAK1 (194-712). The procedure, abridged: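 Luminescent ADP-Glo read-out of ATP turnover by purified His-TEV-IRAK1 (194-712) at 0.3 μg/ml after a 2-hour RT reaction. Compounds, serially diluted from 10 μM to 0.5 nM, were preincubated with enzyme 15 minutes in Hepes pH 7.0 buffer with MgCl2, DTT, EGTA and Triton X-100.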

The target in another experiment is T2, IRAK4 (Homo sapiens, UniProt Q9NWZ3).
T2 construct: His-TEV-IRAK4 (1-460); His (N); TEV cleavage site (N)
T2 sequence (Q9NWZ3 1-460): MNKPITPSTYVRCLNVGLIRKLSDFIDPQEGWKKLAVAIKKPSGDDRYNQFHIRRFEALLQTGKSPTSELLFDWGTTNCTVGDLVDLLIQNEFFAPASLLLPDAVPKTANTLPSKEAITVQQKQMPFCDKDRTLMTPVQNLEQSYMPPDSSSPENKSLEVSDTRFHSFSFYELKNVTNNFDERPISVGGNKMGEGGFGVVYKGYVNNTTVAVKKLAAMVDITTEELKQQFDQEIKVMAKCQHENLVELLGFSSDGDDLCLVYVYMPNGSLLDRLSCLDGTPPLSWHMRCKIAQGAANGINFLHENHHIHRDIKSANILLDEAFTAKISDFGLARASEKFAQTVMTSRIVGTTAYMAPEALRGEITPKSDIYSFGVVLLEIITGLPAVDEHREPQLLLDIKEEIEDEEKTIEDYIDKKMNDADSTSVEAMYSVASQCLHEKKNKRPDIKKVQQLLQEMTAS
In words: IRAK4 enzymatic assay (ADP-Glo luminescence). The class given is biochemical. As to conditions: purified human recombinant His-TEV-IRAK4 (1-460), ATP 2 μM. The gist of the method:
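ADP-Glo luminescence read-out after a 2 h RT kinase reaction with 2 μM ATP and 300 nM biotinylated STK1 peptide. Enzyme (His-TEV-IRAK4 1-460, 0.3 μg/ml) first incubated 15 min with serially diluted compounds (10 μM–0.5 nM) in 50 mM Hepes pH 7.0, 10 mM MgCl2, 5 mM MnCl2.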

T1 sequence (P51617 194-712): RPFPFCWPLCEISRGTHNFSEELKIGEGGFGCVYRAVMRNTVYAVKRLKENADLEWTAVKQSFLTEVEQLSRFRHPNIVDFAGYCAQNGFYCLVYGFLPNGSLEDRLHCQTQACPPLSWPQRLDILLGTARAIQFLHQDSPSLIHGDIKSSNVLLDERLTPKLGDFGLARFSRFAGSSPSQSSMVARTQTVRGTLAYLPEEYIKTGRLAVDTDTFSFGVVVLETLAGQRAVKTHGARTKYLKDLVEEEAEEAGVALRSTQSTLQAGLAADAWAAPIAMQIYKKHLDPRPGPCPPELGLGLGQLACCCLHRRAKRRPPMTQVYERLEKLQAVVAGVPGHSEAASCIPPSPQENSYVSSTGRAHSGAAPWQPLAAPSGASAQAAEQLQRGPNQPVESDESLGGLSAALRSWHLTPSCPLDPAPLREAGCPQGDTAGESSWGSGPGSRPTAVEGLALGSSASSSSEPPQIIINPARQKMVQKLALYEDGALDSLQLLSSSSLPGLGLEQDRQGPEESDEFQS

By IC50 is commonly meant the point on the concentration scale where inhibition reaches its midpoint. Consider `CC1(C)CCOC(=O)N1c1ccc2[nH]c(=NC(=O)c3cccc(C(F)F)c3)n(CCCO)c2c1` [Example 219], for which the IC50 on IRAK1 is 100 to 1000 nM; at IRAK4, no more than 100 nM.
As to `CC1(C)CCOC(=O)N1c1ccc2c(c1)[nH]/c(=N\C(=O)c1cccc(C(F)(F)F)c1)n2CCCO` [Example 220, (E)-3-(trifluoromethyl)-N-(5-(4,4-dimethyl-2-oxo-1,3-oxazinan-3-yl)-1-(3-hydroxypropyl)-1H-benzo[d]imidazol-2(3H)-ylidene)benzamide], the IC50 on IRAK1 and on IRAK4 was no more than 100 nM each time.
With `CC1(C)CCOC(=O)N1c1ccc2[nH]c(=NC(=O)c3cccc(C(F)(F)F)c3)n(CCCO)c2c1` [Example 221], the values for the IC50 on IRAK1 and at IRAK4 were 100 to 1000 nM and no more than 100 nM, respectively.
Turning to `CC1(C)OCCN(c2ccc3c(c2)[nH]/c(=N\C(=O)c2cccc(C(F)F)c2)n3CCCO)C1=O` [Example 222, (E)-3-(difluoromethyl)-N-(5-(2,2-dimethyl-3-oxomorpholino)-1-(3-hydroxypropyl)-1H-benzo[d]imidazol-2(3H)-ylidene)benzamide], the IC50 on IRAK1 is 100 to 1000 nM; at IRAK4 it was no more than 100 nM.
Regarding `CC1(C)OCCN(c2ccc3c(c2)[nH]/c(=N\C(=O)c2cccc(C(F)(F)F)c2)n3CCCO)C1=O` [Example 223, (E)-3-(trifluoromethyl)-N-(5-(2,2-dimethyl-3-oxomorpholino)-1-(3-hydroxypropyl)-1H-benzo[d]imidazol-2(3H)-ylidene)benzamide], the concentration for half-maximal inhibition (IC50) on IRAK1 and on IRAK4 was no more than 100 nM throughout.
Take `CN1CCCN(c2ccc3c(c2)[nH]/c(=N\C(=O)c2cccc(C(F)(F)F)c2)n3CCCO)C1=O` [Example 224, (E)-N-(1-(3-hydroxypropyl)-5-(3-methyl-2-oxotetrahydropyrimidin-1(2H)-yl)-1H-benzo[d]imidazol-2(3H)-ylidene)-3-(trifluoromethyl)benzamide]: the IC50 is 100 to 1000 nM at IRAK1 and no more than 100 nM on IRAK4.
`CN1CCCN(c2ccc3c(c2)[nH]/c(=N\C(=O)c2cccc(C(F)F)c2)n3CCCO)C1=O` [Example 225, (E)-N-(1-(3-hydroxypropyl)-5-(3-methyl-2-oxotetrahydropyrimidin-1(2H)-yl)-1H-benzo[d]imidazol-2(3H)-ylidene)-3-(difluoromethyl)benzamide]: the IC50 at IRAK1 is 100 to 1000 nM; at IRAK4, no more than 100 nM.
In the same order, the values of `CC(F)(CO)Cn1/c(=N/C(=O)c2cccc(C(F)(F)F)c2)[nH]c2cc(N3CCCOC3=O)ccc21` (stereo not shown) [Example 226, (E)-N-(1-(2-fluoro-3-hydroxy-2-methylpropyl)-5-(2-oxo-1,3-oxazinan-3-yl)-1H-benzo[d]imidazol-2(3H)-ylidene)-3-(trifluoromethyl)benzamide] are no more than 100 nM and no more than 100 nM.
`O=C(/N=c1\[nH]c2cc(N3CCCOC3=O)ccc2n1CC1(F)COC1)c1cccc(C(F)F)c1` [Example 227, (E)-3-(difluoromethyl)-N-(1-((3-fluorooxetan-3-yl)methyl)-5-(2-oxo-1,3-oxazinan-3-yl)-1H-benzo[d]imidazol-2(3H)-ylidene)benzamide]: the results for the IC50 at IRAK1 and on IRAK4 were 100 to 1000 nM and no more than 100 nM, respectively.
Turning to `O=C(/N=c1\[nH]c2cc(N3CCCOC3=O)ccc2n1CC1(F)CCOCC1)c1cccc(C(F)F)c1` [Example 228, (E)-3-(difluoromethyl)-N-(1-((4-fluorotetrahydro-2H-pyran-4-yl)methyl)-5-(2-oxo-1,3-oxazinan-3-yl)-1H-benzo[d]imidazol-2(3H)-ylidene)benzamide], the values for the half-maximal inhibitory concentration (IC50) on IRAK1 and at IRAK4 were 100 to 1000 nM and no more than 100 nM, respectively.
For `O=C(/N=c1\[nH]c2cc(N3CCCOC3=O)ccc2n1CC1(F)CCOCC1)c1cccc(C(F)(F)F)c1` [Example 229, (E)-N-(1-((4-fluorotetrahydro-2H-pyran-4-yl)methyl)-5-(2-oxo-1,3-oxazinan-3-yl)-1H-benzo[d]imidazol-2(3H)-ylidene)-3-(trifluoromethyl)benzamide], the IC50 is 100 to 1000 nM at IRAK1 and no more than 100 nM at IRAK4.
